Experimental data published in US8017588B2, “Clarithromycin or salt thereof for use in the treatment or prevention of pulmonary disease induced by destruction of pulmonary alveoli” (Taisho Pharmaceutical Co., Ltd, priority 2005, dated 2011).

Legend:
[1] = Plasma AUC after single administration to a normal human subject; assay type: in vivo; details: 200 mg singly administered, read-out: plasma AUC0-∞
Method: (§1) Administration of clarithromycin was carried out orally at the rate of 25, 50 or 100 […] twice daily (morning and evening) during the tobacco smoke exposure period. The plasma AUC0-∞ of clarithromycin obtained when 50 mg/kg was singly administered to the mice was 2.677 μg·hr/ml while the plasma AUC0-∞ of clarithromycin obtained when 200 mg of clarithromycin was singly administered to a normal human subject was 8.98 μg·hr/ml. The former concentration was substantially lower than the latter one and was an adequate concentration to be used clinically.

[2] = Plasma AUC after single administration to mice; assay type: in vivo; details: C57black/6, mouse, oral, 50 mg/kg singly administered, read-out: plasma AUC0-∞
Method: as §1

[3] = system: model mice with tobacco smoke-induced pulmonary emphysema; test: Pulmonary compliance in model mice with tobacco smoke-induced pulmonary emphysema; assay type: in vivo, C57black/6 female mice; details: after six months' exposure; FIG. 2
Method: (§2) The model mice with tobacco smoke-induced pulmonary emphysema mimicking human pulmonary emphysema were constructed according to the method as described in Hautamaki, R. D. et al., Science 1997, 277:2002-2004 or Shapiro, S. D. et al., Am. J. Pathol (2003) 163:2329-2335. Specifically, C57black/6 female mice of 12-weeks old were exposed to tobacco smoke at two cigarettes per day, 6 days per week for 6 months. Administration of clarithromycin was carried out orally at the rate of 25, 50 or 100 […] twice daily (morning and evening) during the tobacco smoke exposure period. The plasma AUC0-∞ of clarithromycin obtained when 50 mg/kg was singly administered to the mice was 2.677 μg·hr/ml while the plasma AUC0-∞ of clarithromycin obtained when 200 mg of clarithromycin was singly administered to a normal human subject was 8.98 μg·hr/ml. The former concentration was substantially lower than the latter one and was an adequate concentration to be used clinically. It has been reported that as pulmonary emphysema progresses, pulmonary functions deteriorate. It has also been known that the pulmonary compliance, which is an index of pulmonary functions, increases in model mice with tobacco smoke-induced pulmonary emphysema. Thus, the pulmonary compliance was measured in the model mice with tobacco smoke-induced pulmonary emphysema after six months' exposure.

[4] = system: macrophages and neutrophiles in bronchoalveolar lavage fluids; test: Cell counts of inflammatory cells in bronchoalveolar lavage fluids of model mice with tobacco smoke-induced pulmonary emphysema; assay type: in vivo, C57black/6 female mice; details: after six months' exposure, 25, 50 or 100 mg/kg orally twice daily
Method: as §2, with “The cell counts of inflammatory cells (macrophages and neutrophiles) in” for “It has been reported that as pulmonary emphysema progresses, pulmonary functions deteriorate. It has also been known that”, “bronchoalveolar lavage fluids after six months' exposure were measured to provide” for “pulmonary compliance, which is”, “of” for “of pulmonary functions, increases in model mice with tobacco smoke-induced pulmonary emphysema. Thus,”, “inflammatory condition” for “pulmonary compliance was measured”, “emphysema. […]” for “emphysema after six months' exposure.”

With `CC[C@H]1OC(=O)[C@H](C)[C@@H](O[C@H]2C[C@@](C)(OC)[C@@H](O)[C@H](C)O2)[C@H](C)[C@@H](O[C@@H]2O[C@H](C)C[C@H](N(C)C)[C@H]2O)[C@](C)(OC)C[C@@H](C)C(=O)[C@H](C)[C@@H](O)[C@]1(C)O` [clarithromycin] the AUC(0-inf) [1] was 8980 ng·h/mL, the AUC(0-inf) [2] was 2680 ng·h/mL and the pulmonary compliance [3] was “the pulmonary compliance recovered”. The “cell count of macrophages in bronchoalveolar lavage fluid” value ([4]; FIG. 1A) was “reduced the cell counts of macrophages and neutrophiles in a dose-dependant manner” and the “cell count of neutrophiles in bronchoalveolar lavage fluid” value ([4]; FIG. 1B) was “reduced the cell counts of macrophages and neutrophiles in a dose-dependant manner”.
